{"source": "patent US20130331345A1", "about": "“PUERARIN HYDRATES, PREPARATION METHODS AND USES THEREOF” (priority 2010, published 2013)", "key": {"[1]": {"experiment": "Sticking in direct tableting of powder", "type": "physicochemical", "settings": "tableting 200 mg of powder; printed '1-3 times or higher'", "procedure": "In addition, the puerarin hydrate of the present invention overcomes the drawback of deliquescent property of anhydrous puerarin, so that it is not necessary to isolate air to prevent adhesion, and has good sliding property, and the manipuility for manufacturing preparations is improved. Anhydrous puerarin has sticking phenomenon when its powder is used for direct tableting. When tableting 200 mg of powder, anhydrous puerarin has a sticking amount 1-3 times or higher than that of puerarin monohydrate."}, "[2]": {"experiment": "Accelerated stability test (40° C., RH75%), sealed in penicillin bottles", "type": "physicochemical", "settings": "for Marked content (%) / Property / Related substance (%): accelerated, 40° C.", "procedure": "(§1) The sample of the puerarin hydrate above (prepared by method of Example 1) and anhydrous puerarin (anhydrous puerarin was prepared by: drying the hydrate as prepared in Example 1 at 90-105° C. in the presence of phosphorus pentoxide under vacuum for 24-72 hours or more to obtain an anhydrous puerarin, and the water content of anhydrous puerarin was usually lower than 1.0% as measured by Karl Fisher method) were sealed in penicillin bottles to perform accelerated stability test (chromatography conditions: chromatography column: C18 (150 mm×4.6 mm, 5 μm); mobile phase: 0.1% citric acid solution-methanol (75:25); flow rate: 1 ml/min; temperature: room temperature; detection wavelength: 250 nm). […] Hygroscopicity test was performed according to the Pharmacopoeia of the People's Republic of China: about 5 g of anhydrous puerarin and the crystalline hydrate of the present invention were taken, placed in dry watch glasses with constant weight, weighed precisely. Samples were taken separately at 0 h and 48 h of the test at 25° C. and relative humidity of 75%, and hygroscopicity weight gain percentages were calculated."}, "[3]": {"experiment": "Hygroscopicity test according to the Pharmacopoeia of the People's Republic of China", "type": "physicochemical", "settings": "25° C., relative humidity 75%, 48 h", "procedure": "as §1"}, "[4]": {"test_system": "chronic ocular hypertension", "experiment": "Effects on chronic ocular hypertension of rabbits (dexamethasone model)", "type": "in vivo", "settings": "within 24 hours, puerarin hydrate 1% (W/V), betaxolol 0.5% (W/V)", "procedure": "Chronic Ocular Hypertension Models: 32 rabbits, half male and half female, were subjected to sub-conjunctive injection with 0.5 mg of dexamethasone under corneal limbus, once every other day, for consecutive 3 weeks, to obtain chronic ocular hypertension models, then randomly divided into physiological saline group, betaxolol group [0.5% (W/V)], puerarin hydrate group [1% (W/V)]. The maximum decrease of intraocular pressure was measured within 24 hours."}, "benzodiazepine receptor": {"test_system": "benzodiazepine receptor", "settings": "cited from earlier work"}, "β1 receptor": {"biological_target": "T1, β1 receptor (Cavia porcellus, UniProt H0W3H1)", "T1 construct": "ex vivo atrial muscle β1 receptor of guinea pigs; from tissue; host or cells: guinea pig atrial muscle, ex vivo", "T1 sequence (H0W3H1 1-470)": "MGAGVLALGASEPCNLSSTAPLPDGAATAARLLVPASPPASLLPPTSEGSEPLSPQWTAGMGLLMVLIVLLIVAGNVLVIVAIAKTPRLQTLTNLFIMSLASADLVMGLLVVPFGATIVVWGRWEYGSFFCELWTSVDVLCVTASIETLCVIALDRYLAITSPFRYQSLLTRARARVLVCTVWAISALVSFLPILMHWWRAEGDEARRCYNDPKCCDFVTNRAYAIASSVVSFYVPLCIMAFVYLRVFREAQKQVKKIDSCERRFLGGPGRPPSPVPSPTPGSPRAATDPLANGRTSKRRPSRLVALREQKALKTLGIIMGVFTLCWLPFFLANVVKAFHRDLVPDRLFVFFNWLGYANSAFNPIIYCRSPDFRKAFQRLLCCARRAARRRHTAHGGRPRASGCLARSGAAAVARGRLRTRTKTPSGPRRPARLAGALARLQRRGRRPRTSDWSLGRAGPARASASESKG", "settings": "ex vivo atrial muscle of guinea pigs; cited from earlier work"}, "β2 receptor": {"biological_target": "T2, β2 receptor (Cavia porcellus, UniProt Q8K4Z4)", "T2 construct": "trachea strip β2 receptor of guinea pigs; from tissue; host or cells: guinea pig trachea strip", "T2 sequence (Q8K4Z4 whole entry)": "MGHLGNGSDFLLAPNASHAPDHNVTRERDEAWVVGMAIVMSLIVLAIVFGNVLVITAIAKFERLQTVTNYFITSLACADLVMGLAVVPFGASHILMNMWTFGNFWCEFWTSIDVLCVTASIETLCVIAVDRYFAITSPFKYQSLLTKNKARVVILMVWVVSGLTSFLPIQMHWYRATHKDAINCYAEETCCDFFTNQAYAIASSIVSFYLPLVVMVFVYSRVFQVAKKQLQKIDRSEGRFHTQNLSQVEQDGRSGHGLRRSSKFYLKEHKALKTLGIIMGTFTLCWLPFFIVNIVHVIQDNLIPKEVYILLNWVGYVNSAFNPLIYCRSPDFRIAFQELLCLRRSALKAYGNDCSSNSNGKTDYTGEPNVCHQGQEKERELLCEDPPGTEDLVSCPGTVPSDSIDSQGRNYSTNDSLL", "settings": "trachea strip of guinea pigs; cited from earlier work"}, "ethanol intake": {"test_system": "ethanol intake", "settings": "rats, intraperitoneal injection; cited from earlier work"}, "intraocular pressure": {"test_system": "intraocular pressure", "settings": "ocular hypertension rabbit models induced by dexamethasone; cited from earlier work"}, "blood pressure": {"test_system": "blood pressure", "settings": "anesthetized dogs, injection; cited from earlier work"}, "[5]": {"test_system": "blood pressure and heart rate", "settings": "conscious spontaneously hypertensive rats, intraperitoneal injection; cited from earlier work"}, "β receptor": {"test_system": "β receptor", "settings": "cited from earlier work"}, "sudden deafness": {"test_system": "sudden deafness", "settings": "injection, within 2 weeks after administration; cited from earlier work"}, "ACE": {"biological_target": "T3, ACE (Rattus norvegicus, UniProt P47820)", "T3 construct": "from tissue; host or cells: blood serum of Wistar rats", "T3 sequence (P47820 36-1313)": "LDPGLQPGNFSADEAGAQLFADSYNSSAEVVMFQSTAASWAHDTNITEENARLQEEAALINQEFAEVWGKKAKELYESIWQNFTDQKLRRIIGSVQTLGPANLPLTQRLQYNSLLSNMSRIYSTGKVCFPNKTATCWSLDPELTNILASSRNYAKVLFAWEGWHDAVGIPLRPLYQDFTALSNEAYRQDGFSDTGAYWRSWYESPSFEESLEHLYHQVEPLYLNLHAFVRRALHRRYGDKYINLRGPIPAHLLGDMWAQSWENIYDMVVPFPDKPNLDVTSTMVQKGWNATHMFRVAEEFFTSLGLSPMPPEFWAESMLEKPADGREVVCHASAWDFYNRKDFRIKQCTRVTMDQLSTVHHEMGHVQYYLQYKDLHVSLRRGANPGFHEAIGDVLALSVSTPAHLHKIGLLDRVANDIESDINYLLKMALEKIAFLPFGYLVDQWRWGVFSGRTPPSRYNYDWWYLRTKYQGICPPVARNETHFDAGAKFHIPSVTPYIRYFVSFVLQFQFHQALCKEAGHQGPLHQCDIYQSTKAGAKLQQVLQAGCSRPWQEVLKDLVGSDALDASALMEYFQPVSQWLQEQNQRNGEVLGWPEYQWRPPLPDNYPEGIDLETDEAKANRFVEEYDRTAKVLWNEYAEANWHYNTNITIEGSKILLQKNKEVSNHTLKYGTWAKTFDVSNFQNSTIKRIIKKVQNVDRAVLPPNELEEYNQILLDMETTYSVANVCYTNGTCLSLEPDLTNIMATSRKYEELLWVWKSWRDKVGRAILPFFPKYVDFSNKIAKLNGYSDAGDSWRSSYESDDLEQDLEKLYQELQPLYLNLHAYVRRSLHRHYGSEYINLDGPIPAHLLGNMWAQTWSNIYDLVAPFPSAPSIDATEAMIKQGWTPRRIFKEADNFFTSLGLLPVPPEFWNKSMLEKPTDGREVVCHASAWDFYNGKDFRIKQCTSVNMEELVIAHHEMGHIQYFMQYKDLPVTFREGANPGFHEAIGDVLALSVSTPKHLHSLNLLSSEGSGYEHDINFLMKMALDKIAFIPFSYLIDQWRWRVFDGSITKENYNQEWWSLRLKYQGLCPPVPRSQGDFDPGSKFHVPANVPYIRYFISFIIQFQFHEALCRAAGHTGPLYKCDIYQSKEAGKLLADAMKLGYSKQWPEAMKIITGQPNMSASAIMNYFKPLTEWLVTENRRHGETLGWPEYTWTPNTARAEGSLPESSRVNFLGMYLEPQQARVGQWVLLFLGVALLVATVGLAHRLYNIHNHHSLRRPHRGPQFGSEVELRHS", "experiment": "Effects on inhibiting ACE activity (rat blood serum after intraperitoneal injection)", "type": "in vivo, Wistar rats", "settings": "rats, 200 mg/kg intraperitoneal", "procedure": "24 Wistar rats, 280-300 g, were randomly divided into 3 groups, 8 rats per group, one group was control group, other two groups were separately 100 mg/kg, 200 mg/kg dose groups (which was added with cosolvent to form an injectable solution), subjected to intraperitoneal injection, the control group was administered with physiological saline. 60 min after administration, the rats were anesthetized with 1% pentobarbital sodium, subjected to thoracotomy and blood sample was taken from heart, the blood sample stood at room temperature for 30 min, centrifuged under 3500 r/min at low temperature for 10 min, the supernatant was taken and stored at about −65° C., for test. Measurement of ACE activity: referring to document [WANG, Fumin, et al, Chinese Journal of Laboratory Medicine, 1983, 6(3):145-151], the results were subjected to statistical treatment: the results were expressed in x±S, and data were subjected to analysis of variance and t-test."}}}
{"smiles": "O=c1c(-c2ccc(O)cc2)coc2c([C@@H]3O[C@H](CO)[C@@H](O)[C@H](O)[C@H]3O)c(O)ccc12", "note": "[Anhydrous puerarin, reference compound]", "values": [{"measurement": "Sticking amount relative to puerarin monohydrate", "setting": "[1]", "result": "1-3 times"}, {"measurement": "Increase of related substance, 6 month results compared to 0 month results", "setting": "[2]; accelerated test 40° C., compared with puerarin monohydrate", "result": "higher increase"}, {"measurement": "Hygroscopicity compared with the hydrate of the present invention", "setting": "[3]", "result": "much higher"}, {"measurement": "In comparison with 0 h, weight gain, %", "setting": "[3]", "result": 4.26, "unit": "%"}]}
{"smiles": "CC(C)NCC(O)COc1ccc(CCOCC2CC2)cc1", "note": "(stereo not shown) [Betaxolol, reference compound]", "values": [{"measurement": "Maximum decrease of intraocular pressure (mmHg)", "setting": "[4]", "result": 1.9, "unit": "mmHg"}]}
{"smiles": "O=c1c(-c2ccc(O)cc2)coc2c([C@@H]3O[C@H](CO)[C@@H](O)[C@H](O)[C@H]3O)c(O)ccc12", "note": "[Puerarin, 8-β-D-glucopyranosyl-4′,7-dihydroxylisoflavone]", "values": [{"measurement": "Activity at benzodiazepine receptor", "setting": "benzodiazepine receptor", "result": "antagonist or partial agonist"}, {"measurement": "Action on β1 receptor", "setting": "β1 receptor", "result": "significant antagonistic action"}, {"measurement": "Action on β2 receptor", "setting": "β2 receptor", "result": "relatively great concentration is required"}, {"measurement": "Ethanol intake", "setting": "ethanol intake", "result": "significantly reduce"}, {"measurement": "Intraocular pressure", "setting": "intraocular pressure", "result": "reduce"}, {"measurement": "Blood pressure", "setting": "blood pressure", "result": "rapid dose-dependent decrease"}, {"measurement": "Blood pressure and heart rate", "setting": "[5]", "result": "significantly reduce"}, {"measurement": "Effect on activation function of adrenalin on adenylate cyclase", "setting": "β receptor", "result": "completely inhibit"}, {"measurement": "Patients with good state of nail fold microcirculation and improved audition", "setting": "sudden deafness", "result": 70, "unit": "%"}]}
{"smiles": "O=c1c(-c2ccc(O)cc2)coc2c([C@@H]3O[C@H](CO)[C@@H](O)[C@H](O)[C@H]3O)c(O)ccc12", "note": "[Sample 2, puerarin monohydrate]", "values": [{"measurement": "Maximum decrease of intraocular pressure (mmHg)", "setting": "[4]; monohydrate", "result": 2.4, "unit": "mmHg"}]}
{"smiles": "O=c1c(-c2ccc(O)cc2)coc2c([C@@H]3O[C@H](CO)[C@@H](O)[C@H](O)[C@H]3O)c(O)ccc12", "note": "[Sample 3, puerarin monohydrate]", "values": [{"measurement": "inhibition at 200 mg/kg", "setting": "ACE; rat, ip, vs control group, read-out: inhibition rate (%)", "result": 51, "unit": "%"}, {"measurement": "ACE (IU)", "setting": "ACE; blood taken 60 min after administration", "result": "26.7 ± 6.35", "unit": "IU"}]}
{"smiles": "O.O=c1c(-c2ccc(O)cc2)coc2c([C@@H]3O[C@H](CO)[C@@H](O)[C@H](O)[C@H]3O)c(O)ccc12.O=c1c(-c2ccc(O)cc2)coc2c([C@@H]3O[C@H](CO)[C@@H](O)[C@H](O)[C@H]3O)c(O)ccc12", "note": "[Sample 5, puerarin 0.5 hydrate]", "values": [{"measurement": "Marked content (%)", "setting": "[2]; sampling time 0 month", "result": 99.1, "unit": "%"}, {"measurement": "Property", "setting": "[2]; sampling time 0 month", "result": "off-white powder"}, {"measurement": "Related substance (%)", "setting": "[2]; sampling time 0 month", "result": "<2", "unit": "%"}, {"measurement": "Marked content (%)", "setting": "[2]; sampling time 1 month", "result": 99.2, "unit": "%"}, {"measurement": "Property", "setting": "[2]; sampling time 1 month", "result": "off-white powder"}, {"measurement": "Related substance (%)", "setting": "[2]; sampling time 1 month", "result": "<2", "unit": "%"}, {"measurement": "Marked content (%)", "setting": "[2]; sampling time 2 month", "result": 99.2, "unit": "%"}, {"measurement": "Property", "setting": "[2]; sampling time 2 month", "result": "off-white powder"}, {"measurement": "Related substance (%)", "setting": "[2]; sampling time 2 month", "result": "<2", "unit": "%"}, {"measurement": "Marked content (%)", "setting": "[2]; sampling time 3 month", "result": 99.0, "unit": "%"}, {"measurement": "Property", "setting": "[2]; sampling time 3 month", "result": "off-white powder"}, {"measurement": "Related substance (%)", "setting": "[2]; sampling time 3 month", "result": "<2", "unit": "%"}, {"measurement": "Marked content (%)", "setting": "[2]; sampling time 6 month", "result": 98.9, "unit": "%"}, {"measurement": "Property", "setting": "[2]; sampling time 6 month", "result": "off-white powder"}, {"measurement": "Related substance (%)", "setting": "[2]; sampling time 6 month", "result": "<2", "unit": "%"}, {"measurement": "Maximum decrease of intraocular pressure (mmHg)", "setting": "[4]", "result": 2.5, "unit": "mmHg"}, {"measurement": "In comparison with 0 h, weight gain, %", "setting": "[3]", "result": 1.51, "unit": "%"}]}
